Data set [1] concerns iNOS. As to the kind of experiment: LPS/IFN-induced NO production and iNOS gene expression in primary astrocytes. Format: cell-based, rat. The settings on record: for effect on D-PDMP mediated inhibition of NO production: glycosphingolipid 5 and 10 μM added with D-PDMP 50 μM, 0.5 hr before LPS/IFN.
The next data set relates to KA-treated rats. Briefly: KA-induced seizure model (epilepsy model), rat hippocampus. Format: in vivo. The settings on record: 3 days after KA. On the procedure: FIG. 45. Experimental design for the use of statins as a therapeutic for kinic acid induced seizures (epilepsy model).
FIG. 46. […] The rats were orally pre-treated (7 days before) with atorvastatin (LP; 10 mg/kg) prior to KA (10 mg/kg, i.p.). At 3 days after KA injection, neuronal cell death in hippocampus was examined using cresyl violet stain.
FIG. 47. […] The rats were orally pre-treated (7 days before) with atorvastatin (LP; 10 mg/kg) prior to KA (10 mg/kg, i.p.). At 3 days after KA injection, infiltration of macrophages in the CA1 and CA3 regions of the hippocampus was examined using immunofluorescent labeling against for ED-1, as a marker of monocytes.
The rats were orally pre-treated (7 days before) with atorvastatin (LP; 10 mg/kg) prior to KA (10 mg/kg, i.p.). At 3 days after KA injection, neuronal cell death in the CA1 (A) and CA3 (B) regions of the hippocampus was examined using TUNNEL assay.
FIG. 49. […] The rats were orally pre-treated (7 days before) with lovastatin (Lov; 10 mg/kg) prior to KA (10 mg/kg, i.p.). At 3 days after KA injection, neuronal cell death in hippocampus was examined using cresyl violet stain.
FIG. 50A-C. […] The rats were orally pre-treated (7 days before) with atorvastatin (LP; 10 mg/kg) prior to KA (10 mg/kg, i.p.). At 3 days after KA injection, the expression of inflammatory genes (TNF-α, IL-1β, and iNOS) in hippocampus using real time PCR. The expression of each gene was normalized with GAPDH expression.
FIG. 51A-C. […] The rats were orally pre-treated (7 days before) with lovastatin (Lov; 10 mg/kg) prior to KA (10 mg/kg, i.p.). At 3 days after KA injection, the expression of inflammatory genes (TNF-α, IL-1β, and iNOS) in hippocampus using real time PCR. The expression of each gene was normalized with GAPDH expression.
Seizure index: stage 1, facial clonus; stage 2, nodding; stage 3, forelimb clonus; stage 4, forelimb clonus with rearing; stage 5, rearing, jumping, and falling. The rats were orally pre-treated (7 days before) with lovastatin or atorvastatin (Lov or LP; 10 mg/kg) prior to KA (10 mg/kg, i.p.).

A further data set deals with Macrophages. The settings on record: 10 μM lovastatin or 5 mM NaPA 8 h, LPS 1.0 μg/ml, 24 h.
Another data set has as its system Rat Primary Astrrocytes. Conditions: LPS 1.0 μg/ml, 24 h.
Another data set relates to Microglia. The settings on record: 10 μM lovastatin or 5 mM NaPA 8 h, LPS 1.0 μg/ml, 24 h.
Data set [2] has as its system iNOS. As to the kind of experiment: LPS/IFN-induced NO production and iNOS expression in C6 glioma cells. Format: cell-based, rat. The settings on record: exogenous glycosphingolipid with D-PDMP. On the procedure: C6 rat glioma cells obtained from ATCC were maintained in Dulbecco's modified Eagle's medium (DMEM) (GIBCO, CA) containing 10% fetal bovine serum (FBS) (GIBCO) and 10 ? g/ml gentamicin. All the cultured cells were maintained at 37° C. in 5% CO2/95% air. At 80% confluency, the cells were incubated with serum free DMEM medium for 24 h prior to the incubation with LPS/IFN ? and other chemicals. Assay for NO production. Cells were cultured in 12-well plastic tissue culture plates. After the appropriate treatment, production of NO was determined by an assay of the culture supernatant for nitrite (Green et al., 1982). Briefly, 100 μl of culture supernatant was allowed to react with 100 μl of Griess reagent. The optical density of the assay samples was measured spectrophotometrically at 570 nm. Nitrite concentrations were calculated from a standard curve derived from the reaction of NaNO2 in fresh media. Western Blot Analysis. […] The protein concentration of samples was determined with the detergent compatible protein assay reagent (Bio-Rad Laboratories, CA) using bovine serum albumin (BSA) as the standard. Sample was boiled for 3 min with 0.1 volumes of 10% O-mercaptoethanol and 0.5% bromophenol blue mix. Fifty μg of total cellular protein was resolved by electrophoresis in 8 or 12% polyacrylamide gels, electro-transferred to polyvinylidene difluoride (PVDF) filter and blocked with Tween 20 containing Tris-buffered saline [TBST; 10 mM Trizma base (pH 7.4), 1% Tween 20, and 150 mM NaCl] with 5% skim milk. After incubation with antiserum against iNOS (BD PharMingen, CA), or hRas (Upstate Biotechnology, CA), or phospho-specific MAPK (p42/44) (Signal Transduction), in PVDF buffer for 2 h at room temperature, the filters were washed 3 times with TBST buffer and then incubated with horseradish peroxidase conjugated anti-rabbit or mouse IgG for 1 h. The membranes were autoradiographed by using ECL-plus (Amersham Pharmacia Biotech) after washing with TBST buffer. RT-PCR amplification. […] PCR amplification was conducted in 25 ? l of reaction mixture with 1.0 ? l of cDNA, […] and under the manufacturer's Taq polymerase conditions (Takara, […] Shuzo Co. Ltd, Japan). The sequence of primers used for PCR amplification are as follows; iNOS, (Forward-[NT], Reverse-[NT]), GalT-2 (Forward-[NT], Reverse-[NT]), GAPDH (Forward-[NT], Reverse-[NT]).

Data set [3] is described as follows: Comparison of biology of IFN-β, GA and statin + GSNO (Table 2). An excerpt:
FIGS. 28-52 provide additional data that show the effectiveness of statins in treating a variety of inflammatory diseases such as multiple sclerosis, spinal cord injury, stroke, and kinic acid induced seizures. Additionally, Table 2 provides data concerning the treatment of multiple sclerosis (MS) with statins as compared to two other approved MS drugs.

The mark [4] stands for this setting: PD98059 pretreatment 0.5 hr before LPS, 24 hrs.
The mark [5] stands for this setting: 10 mg/kg orally, 7 days before KA.

“5′-CGCTTGAGCGCAGACATCTT-3′ (chemistry not given here) [antisense DNA oligomer, 20-mer antisense oligonucleotide targeted against rat lactosylceramide synthase (GalT-2)]”: the “iNOS mRNA and protein levels” value with iNOS [1] (GalT-2 antisense 200 nM oligo, stimulated 2 d after transfection, 6 hrs mRNA, 24 hrs protein) is “reduced significantly”. For the same compound, in the data set with iNOS [1] (GalT-2 antisense 200 nM oligo, stimulated 2 d after transfection, 24 hr), the “LPS/IFN-mediated NO production” value is given as “reduced significantly”.

In the case of galactosylceramide [GalCer], the “effect on D-PDMP mediated inhibition of NO production” value in the data set on iNOS [1] (24 hrs) is “did not reverse”.

Consider `COc1cccc(-c2cc(=O)c3ccccc3o2)c1N` [PD98059], for which, in the data set with iNOS [1] (setting [4]), the NO production entry was “inhibition” and the iNOS expression entry is “inhibition”.

Turning to `CC(C)c1c(C(=O)Nc2ccccc2)c(-c2ccccc2)c(-c2ccc(F)cc2)n1CC[C@@H](O)C[C@@H](O)CC(=O)O` [Atorvastatin, atorvastatin], in the data set with KA-treated rats (setting [5]), the “apoptosis induced by KA in hippocampus (TUNNEL assay, CA1 and CA3)” value is “inhibited”; the “infiltration of macrophages induced by KA in hippocampus (ED-1)” value is recorded as “inhibited”. Also, the “KA-induced neuronal cell death in hippocampus (cresyl violet stain)” value in the data set on KA-treated rats (statin 10 mg/kg orally, 7 days before KA 10 mg/kg i.p.) was “inhibited”. The “expression of inflammatory genes (TNF-α, IL-1β, and iNOS) induced by KA in hippocampus (real time PCR)” value in the data set on KA-treated rats (statin 10 mg/kg orally, 7 days before KA) is on record as “inhibited”.

Consider `O=C([O-])Cc1ccccc1.[Na+]` [NaPA], for which the TNF-α with Macrophages (LPS only 18.6 +/− 2.3) was 1.7 +/− 0.2 ng/24 h/mg protein; in the data set with Rat Primary Astrrocytes (10 μM lovastatin or 5 mM NaPA 8 h, LPS only 5.3 +/− 0.8), 0.4 +/− 0.06 ng/24 h/mg protein; in the data set on Microglia (LPS only 14.5 +/− 2.1), 1.3 +/− 0.2 ng/24 h/mg protein. In addition, the Il-1β is 3.1 +/− 0.4 ng/24 h/mg protein in the data set on Macrophages (LPS only 34.6 +/− 4.5); 1.1 +/− 0.2 ng/24 h/mg protein in the data set with Rat Primary Astrrocytes (10 μM lovastatin or 5 mM NaPA 8 h, LPS only 10.4 +/− 1.5); 2.4 +/− 0.2 ng/24 h/mg protein in the data set with Microglia (LPS only 28.2 +/− 3.4). For the same compound, the NO with Macrophages (LPS only 118.5 +/− 12.5) is on record as 9.5 +/− 0.7 n mol/24 h/mg protein; with Rat Primary Astrrocytes (10 μM lovastatin or 5 mM NaPA 8 h serum free, LPS only 25.3 +/− 3.2) it was 5.4 +/− 0.6 n mol/24 h/mg protein; with Microglia (LPS only 81.2 +/− 6.9), 6.9 +/− 0.9 n mol/24 h/mg protein. The IL-6 in the data set with Macrophages (LPS only 350.0 +/− 27.6) is 10.2 +/− 1.4 ng/24 h/mg protein; in the data set on Rat Primary Astrrocytes (10 μM lovastatin or 5 mM NaPA 8 h, LPS only 136.5 +/− 16.8) it was 1.1 +/− 0.2 ng/24 h/mg protein; in the data set on Microglia (LPS only 295.6 +/− 33.5), 9.3 +/− 1.2 ng/24 h/mg protein.

As for Glucosylceramide [GluCer], in the data set with iNOS [2], the “effect on D-PDMP inhibition of NO production” value is reported as “no effect”; the “effect on D-PDMP inhibition of iNOS mRNA and protein expression” value is recorded as “no effect”. Also, in the data set with iNOS [1] (24 hrs), the “effect on D-PDMP mediated inhibition of NO production” value was “did not reverse”.

For glatiramer acetate [GA], in data set [3], the “Decrease expression of adhesion molecules” value is reported as “No”, the Decrease inflammatory cytokines result is reported as “Yes”, the “Decreased expression of MHCII” value is on record as “No” and the “Excludes leukocytes from entering CNS” value is recorded as “No”. Also, in data set [3], the “Inhibition of MMPs” value was “No”, the “Inhibition of chemokine expression” value is reported as “No”, the “Inhibition of clonal expression of co-stimulatory molecules” value is given as “Yes” and the “Interferences with T-cell activation” value is listed as “Yes”. In data set [3], the “Leukocyte trafficking across the blood brain barrier (BBB)” value is given as “No”, the Neuroprotection result is “Yes”, the “Protection of BBB” value is recorded as “No” and the “Reduced level of co-stimulatory molecules” value was “No”. In addition, the “Th1 to Th2 deviation” value in data set [3] was “Yes”.

The values above are taken from patent US20070270350A1, “Methods and Compositions for the Prevention and Treatment of Inflammatory Diseases or Conditions” (MUSC FOUNDATION FOR RESEARCH DEVELOPMENT, priority 2003, published 2007).
